What was measured:
p-S6K, p-S6, LC3 [1] = assay: Cell signaling assay, western blot, SW480; assay type: cell-based, human; settings: 0, 5, and 10 μM, FIG. 7a
Method: (§1) Cells treated with various concentrations (0, 5, and 10 μM) of lomitapide were lysed with RIPA buffer containing a protease-inhibitor cocktail. The whole-cell lysate was incubated on ice for 30 minutes. After centrifugation at 4° C. and 13,300×g for 15 minutes, the supernatant was collected. For use as controls, HCT116, SW480, HT29, MDA-MB-231, and MDA-MB-468 cells were treated with 1 μM of torin, known as an mTOR inhibitor.
(§2) For western blot analysis, the supernatant was loaded onto 10% SDS-PAGE gel. The separated proteins were blotted onto a PVDF membrane. Then, the blots were incubated with antibodies at 4° C. for 12 hours as follows (Table 2).
(§3) Then, the blots were washed with TBST (a mixture of tris-buffered saline (TBS) and Tween 20), incubated with horseradish peroxidase-conjugated secondary antibody (Cell signaling) at 37° C. for 1 hour, and washed, followed by detecting enhanced chemiluminescence (ECL; Amersham).

[2] = system: colorectal cancer patient-derived organoids; assay: Viability assay for organoids derived from colorectal cancer patients (imaging based); assay type: cell-based, human; settings: two colorectal cancer patient-derived organoids; 72 hours; FIG. 20
Method: Two-type colorectal cancer patient-derived organoids (organoid from males at 01-46 of age and organoid from females at 02-74 of age) were treated with lomitapide and assayed for viability as follows.
Organoids derived from colorectal cancer patients were cultured for 5-7 days on 48-well plates (SPL, cat 32048).
The organoids were separated from the plates by pipetting with 200 μL of Dulbecco's phosphate-buffered saline (DPBS; Welgene LB001-02) and transferred to new tubes.
For staining, the separated organoids and Hoechst (Thermo, #H-1399) were added at a ratio of 1:2,000 to a culture medium and incubated for 30 minutes at 37° C. in a 5% CO2 incubator. […]
Following the dispense, the number, state, and area of organoids were measured through DAPI signals with the aid of the high-contents imaging-based screening device Cytation 5 (Biotek).
Subsequently, organoid areas were monitored three times every 24 hours for 72 hours without changing the culture medium.
The effectiveness of the drug was calculated by applying the raw data derived from Cytation 5 to the following formulas. […]
Each organoid stained with Hoechst was measured for area (μm^2) by using Cytation 5, and areas of the all organoids in each well were summed.
The difference between the organoid area after 72 hours of drug treatment and the organoid area at the first 0 hour was calculated. […]

HT29 = assay: Viability assay for lomitapide-treated colorectal cells (CellTiter-Glo, 24); assay type: cell-based, human; settings: 0, 1, 2, 5, and 10 μM, dose-dependent
Method: (§4) NCM460, HCT116, HT29, and SW480 cell lines were each seeded at a density of 10^4 cells/well into 96-well plates and incubated 37° C. for 24 hours before treatment with various concentrations (0, 1, 2, 5, and 10 μM) of lomitapide (Sigma Aldrich, Missouri, USA). After treatment of the cells with lomitapide at 37° C. for 24 in a 5% CO2 atmosphere, 100 μL of an assay reagent (CellTiter-Glo® Reagent) was added to each well. Then, luminescence was read using VICTOR X Multilabel Reader (PerkinElmer, Massachusetts, USA) and used to calculate cell viability (%). Results are depicted in FIGS. 2 to 4.

HCT116 = assay: as above; assay type: cell-based, human
Method: as §4

MC38 colorectal cancer = assay: Mouse homograft tumor model, MC38 colorectal cancer; assay type: in vivo; settings: MC38 in C57B6/N mice
Method: (§5) For mouse homograft tumor model, experiments were conducted using female C57B6/N mice (wild-type, 6 weeks old) with MC38 colorectal cancer and B16F10 melanoma cell lines. MC38 colorectal cancer and B16F10 melanoma cell lines were each subcutaneously injected at a dose of 2×10^5 cells. Lomitapide used in the two models was formulated with 45% saline, 40% PEG300, 5% Tween-80, and 10% DMSO.
(§6) From 10 days after the DMC38 colorectal cancer cells injection, lomitapide was intraperitoneally injected five times at a dose of 20 mg/kg, and anti-PD-1 mAb (clone RMP1-14, BioXCell, West Lebanon, NH, USA) or rat IgG2a iso-type control (clone 2A3, BioXCell, BE0089) in PBS was administered at a dose of 10 mg/kg at days 1, 4, 7, and 10 (FIGS. 18a and 18b).

[3] = system: immunocytes (CD4+, CD4+/CD44+, CD8+, CD8+/IFNη, Foxp3, NK, and NK/IFNγ); assay: Immunocyte analysis in MC38 homograft model; assay type: in vivo, mouse; settings: lomitapide alone
Method: as §5, §6
In addition, MC38 colorectal cancer cells were analyzed for immunocytes (CD4+, CD4+/CD44+, CD8+, CD8+/IFNη, Foxp3, NK, and NK/IFNγ).

p-S6K, p-S6, LC3 [4] = assay: Cell signaling assay, western blot, HT29; assay type: cell-based, human; settings: 0, 5, and 10 μM, FIG. 7b
Method: as §1, §2, §3

p-AMPK, LC3, p-ULK1 = assay: Autophagy assay, western blot, HCT116; assay type: cell-based, human; settings: 0, 5, and 10 μM, FIG. 8
Method: HCT116 cells treated with various concentration (0, 5, and 10 μM) of lomitapide were analyzed for change in cell autophagy-related cell signaling pathway by western blotting. To this end, the supernatant obtained in Example 3 was loaded onto 10% SDS-PAGE gel. The proteins thus separated were blotted onto a PVDF membrane. Then, the blots were incubated with anti-p-AMPK, anti-LC3, anti-p-ULK1 antibodies (Cell Signaling Technology, Massachusetts, USA) at 4° C. for 12 hours. Afterward, the blots were washed with TBST (a mixture of tris-buffered saline (TBS) and Tween 20), incubated with horseradish peroxidase-conjugated secondary antibody (Cell signaling) at 37° C. for 1 hour, and washed, followed by detecting enhanced chemiluminescence (ECL; Amersham).

Compound: O=C(NC1CCN(CCCCC2(C(=O)NCC(F)(F)F)c3ccccc3-c3ccccc32)CC1)c1ccccc1-c1ccc(C(F)(F)F)cc1 [lomitapide, N-(2,2,2-trifluoroethyl)-9-[4-[4-[[[4′-(trifluoromethyl)[1,1′-biphenyl]2-yl]carbonyl]amino]-1-piperidinyl]butyl]-9H-fluoren-9-carboxamide]
- conversion from LC3I into LC3II (p-S6K, p-S6, LC3 [1]): increased induction of conversion from LC3I into LC3II
- phosphorylation levels of target proteins (p-S6K and p-S6) (p-S6K, p-S6, LC3 [1]): remarkably decreased phosphorylation levels
- organoid viability [2]: decreased in viability with the increase of the dose
- cell viability (HT29): reduced the viability
- cell viability (HCT116; HCT116, 0, 1, 2, 5, and 10 μM, dose-dependent): reduced the viability
- cell viability of cancer cells compared to normal cells (HCT116; HCT116 vs normal human colonic epithelial cells (NCM460), FIG. 2): decreased cell viability
- tumor growth compared to the groups treated with the anti-PD-1 mAb (MC38 colorectal cancer; lomitapide 20 mg/kg i.p., anti-PD-1 mAb 10 mg/kg): greatly suppressed and reduced
- tumor growth compared to the control (MC38 colorectal cancer; lomitapide 20 mg/kg intraperitoneally five times): significantly suppressed and reduced tumor growth
- level of CD4+ immunocytes vs group treated with anti-PD-1 mAb alone [3]: superior
- level of CD4+/CD44+ immunocytes vs group treated with anti-PD-1 mAb alone [3]: similar
- level of CD8+ immunocytes vs group treated with anti-PD-1 mAb alone [3]: similar
- level of CD8+/IFNη immunocytes vs group treated with anti-PD-1 mAb alone [3]: similar
- level of Foxp3 immunocytes vs group treated with anti-PD-1 mAb alone [3]: similar
- level of NK immunocytes vs group treated with anti-PD-1 mAb alone [3]: superior
- level of NK/IFNγ immunocytes vs group treated with anti-PD-1 mAb alone [3]: superior
- conversion from LC3I into LC3II (p-S6K, p-S6, LC3 [4]): increased induction of conversion from LC3I into LC3II
- phosphorylation levels of target proteins (p-S6K and p-S6) (p-S6K, p-S6, LC3 [4]): remarkably decreased phosphorylation levels
- conversion from LC3I into LC3II (p-AMPK, LC3, p-ULK1): significantly increased induction of conversion from LC3I into LC3II
- phosphorylation level of AMPK (p-AMPK, LC3, p-ULK1; dose-dependent): remarkably increased

Reference: patent publication US12582638B2, “Pharmaceutical composition for treating cancer, containing mTOR-signaling inhibitor as active ingredient” (KOREA ADVANCED INSTITUTE OF SCIENCE AND TECHNOLOGY, priority 2020, dated 2026)
